Patent US20120122727A1, “IN VITRO METHOD FOR PREDICTING WHETHER A COMPOUND IS GENOTOXIC IN VIVO” (priority 2009, published 2012)

Experiments:
[1] = test system: primary mouse hepatocytes
[2] = test system: primary mouse hepatocytes; test: Gene expression (Affymetrix Mouse Genome 430 2.0) in primary mouse hepatocytes, true vs false GTX, 24 h and 48 h; conditions: log2, corrected for vehicle control

For `c1ccc2c(c1)cc1ccc3cccc4ccc2c1c34` [BaP, Benzo(a)pyrene], the “Gene expression data AF204959 (Cyp3a25 /// LOC622249)” value [1] was 0.3057, the “Gene expression data AF000969 (Cadps2)” value ([2]; 24 h average) was −1.91 and the “Gene expression data AF022072 (Grb10)” value ([2]; 24 h average) was −0.2844. The “Gene expression data AF065917 (Lif)” value ([2]; 24 h average) was 0.9227, the “Gene expression data AF297615 (Ggta1)” value ([2]; 24 h average) was 1.735 and the “Gene expression data AI594683 (Dmn)” value ([2]; 24 h average) was 0.731. For the same compound, the “Gene expression data AI596632 (Ptprg /// LOC632664)” value ([2]; 24 h average) was −1.8362, the “Gene expression data AI987929 (Ndrg1)” value ([2]; 24 h average) was −0.3648 and the “Gene expression data AK004419 (Fbxl17)” value ([2]; 24 h average) was −1.001. For the same compound, the “Gene expression data AK005731 (1700007K13Rik)” value ([2]; 24 h average) was 2.016, the “Gene expression data AK007766 (1810044A24Rik)” value ([2]; 24 h average) was −1.288 and the “Gene expression data AK007854 (1810053B23Rik)” value ([2]; 24 h average) was 0.3514. The “Gene expression data AK009736 (Gpr137b /// LOC664862 /// LOC673335)” value ([2]; 24 h average) was 0.2174, the “Gene expression data AK010447 (Smyd3)” value ([2]; 24 h average) was −1.0413 and the “Gene expression data AK014608 (4632434l11Rik)” value ([2]; 24 h average) was 1.665. The “Gene expression data AK019979 (2610528E23Rik)” value ([2]; 24 h average) was −0.6154, the “Gene expression data AV095209 (Mthfd1l)” value ([2]; 24 h average) was −0.5885 and the “Gene expression data AV141095 (1110033M05Rik)” value ([2]; 24 h average) was −1.058. For the same compound, the “Gene expression data AV173571 (1700106N22Rik)” value ([2]; 24 h average) was −1.123, the “Gene expression data AV219418 (Ldhb)” value ([2]; 24 h average) was 0.2781 and the “Gene expression data AV223474 (Zdhhc14)” value ([2]; 24 h average) was −1.375. The “Gene expression data AV298304 (Homez)” value ([2]; 24 h average) was 0.6204, the “Gene expression data AV327248 (Zfp365 /// LOC674611)” value ([2]; 24 h average) was 1.102 and the “Gene expression data AV377066 (9130221J18Rik)” value ([2]; 24 h average) was 0.7572. For the same compound, the “Gene expression data AW240761 (Tbc1d5)” value ([2]; 24 h average) was −0.703, the “Gene expression data AW543460 (Pard3)” value ([2]; 24 h average) was −0.6194 and the “Gene expression data AW543723” value ([2]; 24 h average) was 1.993. For the same compound, the “Gene expression data AW986246 (Maoa)” value ([2]; 24 h average) was 0.1617, the “Gene expression data BB027848 (4732466D17Rik)” value ([2]; 24 h average) was 0.0761 and the “Gene expression data BB043558 (9230114K14Rik)” value ([2]; 24 h average) was 1.247. The “Gene expression data BB275142 (AW456874)” value ([2]; 24 h average) was 1.003, the “Gene expression data BB308836 (Ppm1l)” value ([2]; 24 h average) was −0.6122 and the “Gene expression data BB318221 (Zdhhc14)” value ([2]; 24 h average) was −1.679. For the same compound, the “Gene expression data BB463610 (4632434l11Rik)” value ([2]; 24 h average) was 2.144, the “Gene expression data BB526605 (Mipol1)” value ([2]; 24 h average) was −0.7419 and the “Gene expression data BB770528 (Rai2)” value ([2]; 24 h average) was 0.6977. The “Gene expression data BB821363 (Scfd2)” value ([2]; 24 h average) was −1.403, the “Gene expression data BC004827 (Psat1)” value ([2]; 24 h average) was −0.04097 and the “Gene expression data BC008626 (Icam1)” value ([2]; 24 h average) was 0.8234. For the same compound, the “Gene expression data BC010462 (BC010462)” value ([2]; 24 h average) was 0.6663, the “Gene expression data BC012247 (Dcxr)” value ([2]; 24 h average) was 0.4451 and the “Gene expression data BC012260 (Psmf1)” value ([2]; 24 h average) was 0.3127. For the same compound, the “Gene expression data BC015270 (Hist2h3c2)” value ([2]; 24 h average) was 0.7908, the “Gene expression data BC016073 (Cdkal1)” value ([2]; 24 h average) was −0.6631 and the “Gene expression data BC016265 (Ube2e2)” value ([2]; 24 h average) was −0.751. The “Gene expression data BC019882 (Acaa1b)” value ([2]; 24 h average) was 2.0133, the “Gene expression data BC025501 (Aaas)” value ([2]; 24 h average) was 1.5389 and the “Gene expression data BC025837 (Sbk1)” value ([2]; 24 h average) was 0.3802. For the same compound, the “Gene expression data BC025915 (Cova1)” value ([2]; 24 h average) was −0.5396, the “Gene expression data BC026422 (Tgm1)” value ([2]; 24 h average) was 0.6019 and the “Gene expression data BF719766 (Thyn1)” value ([2]; 24 h average) was 0.9747. For the same compound, the “Gene expression data BG065754 (Ccng1)” value ([2]; 24 h average) was 0.8607, the “Gene expression data BG066903 (Kif16b)” value ([2]; 24 h average) was −0.133 and the “Gene expression data BG069873 (Gnb1l)” value ([2]; 24 h average) was 1.299. For the same compound, the “Gene expression data BG070887 (Gtdc1)” value ([2]; 24 h average) was −0.9734, the “Gene expression data BG076151 (Ppm1d)” value ([2]; 24 h average) was 0.728 and the “Gene expression data BG261907 (Large)” value ([2]; 24 h average) was −1.3429. For the same compound, the “Gene expression data BI651416 (Cdc42bpg)” value ([2]; 24 h average) was 1.679, the “Gene expression data BI660702 (Ell3)” value ([2]; 24 h average) was 1.3867 and the “Gene expression data BM198879 (Ercc5)” value ([2]; 24 h average) was 1.054. For the same compound, the “Gene expression data BM230508 (A030007D23Rik)” value ([2]; 24 h average) was 1.297, the “Gene expression data NM_007987 (Fas)” value ([2]; 24 h average) was 0.8287 and the “Gene expression data NM_008522 (Ltf)” value ([2]; 24 h average) was 1.114. The “Gene expression data NM_008576 (Abcc1)” value ([2]; 24 h average) was 0.1024, the “Gene expression data NM_011176 (St14)” value ([2]; 24 h average) was 1.508 and the “Gene expression data NM_011316 (Saa4)” value ([2]; 24 h average) was 0.1871. For the same compound, the “Gene expression data NM_012006 (Acot1)” value ([2]; 24 h average) was 3.255, the “Gene expression data NM_013866 (Zfp385)” value ([2]; 24 h average) was 0.776 and the “Gene expression data NM_018770 (Igsf4a)” value ([2]; 24 h average) was −0.8982. For the same compound, the “Gene expression data NM_021451 (Pmaip1)” value ([2]; 24 h average) was 0.6364, the “Gene expression data NM_025770 (Atg10)” value ([2]; 24 h average) was −1.053 and the “Gene expression data NM_028803 (Gbe1)” value ([2]; 24 h average) was −0.5416. The “Gene expression data NM_030697 (Ankrd47)” value ([2]; 24 h average) was 1.4578, the “Gene expression data NM_053168 (Trim11)” value ([2]; 24 h average) was 0.823 and the “Gene expression data NM_134188 (Acot2)” value ([2]; 24 h average) was 0.5856. The “Gene expression data Y15910 (Diap2)” value ([2]; 24 h average) was −1.352, the “Gene expression AA561726 average” value ([2]; 48 h) was −1.7432 and the “Gene expression AF000969 average” value ([2]; 48 h) was −2.251. For the same compound, the “Gene expression AF022072 average” value ([2]; 48 h) was −1.018, the “Gene expression AF033112 average” value ([2]; 48 h) was 1.4254 and the “Gene expression AF055573 average” value ([2]; 48 h) was −1.5573. For the same compound, the “Gene expression AF069954 average” value ([2]; 48 h) was 0.8863, the “Gene expression AF297615 average” value ([2]; 48 h) was 1.572 and the “Gene expression AF335325 average” value ([2]; 48 h) was 1.4875. The “Gene expression AI594683 average” value ([2]; 48 h) was 1.466 and the “Gene expression AI747296 average” value ([2]; 48 h) was −2.124.
